Test results as given in US12319676B2, “Substituted amide compounds useful as farnesoid X receptor modulators” (BRISTOL-MYERS SQUIBB COMPANY, priority 2019, dated 2025).

molecular target: T1, human FXR (Homo sapiens, UniProt Q96RI1); experiment: transient human FXR/Gal4-luciferase reporter assay; type: cell-based; conditions: Gal4-hFXR fusion construct, luciferase reporter in HEK293 cells; overnight incubation; response as percentage of 8 μM GW-4064 control
T1 construct: expressed in transfected cells; host or cells: HEK293 cells stably carrying a 5xGal4 response element-luciferase reporter, transiently transfected with pcDNA3.1-Gal4-FXR
T1 sequence (Q96RI1 262-486 limits assumed): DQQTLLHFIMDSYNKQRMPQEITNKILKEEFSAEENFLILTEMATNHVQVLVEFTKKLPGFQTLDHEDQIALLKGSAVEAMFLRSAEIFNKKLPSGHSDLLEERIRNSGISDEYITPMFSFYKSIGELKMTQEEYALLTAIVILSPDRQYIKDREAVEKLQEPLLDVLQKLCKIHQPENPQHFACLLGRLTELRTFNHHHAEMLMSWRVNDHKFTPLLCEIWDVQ
Procedure: The exemplified compounds of the present invention were tested in the transient human FXR/Gal4-luciferase reporter assay, and assay results were reported in Table 1 and Examples 1 to 3 together with other analytical data. A Gal4-hFXR fusion construct reporter system was used as the primary assay to characterize compound activity. A construct including 5 copies of the Gal4 promoter response element upstream of a firefly luciferase reporter cDNA was stably expressed in HEK293 cells. This reporter cell line was maintained in Dulbecco's Modified Eagle's medium (DMEM; Gibco) supplemented with 1% penicillin-streptomycin (P/S) solution, 500 μg/mL Zeocin and 10% charcoal/dextran-treated fetal bovine serum (cs-FBS) at 37° C. in a humidified 5% CO2 atmosphere. Another plasmid was constructed in which the human cytomegalovirus promoter in the pcDNA3.1 vector directs the expression of the cDNA encoding a fusion protein comprised of the DNA binding domain from the Gal4 transcription factor fused to the ligand binding domain from human FXR. The day prior to transfection, the reporter cells in culture are detached from the plate with trypsin and plated into a T75 flask at a sufficient density to achieve approximately 90% confluence the next morning. The transfection reagents are prepared by separately diluting 25 μg of the pcDNA3.1-Gal4-FXR plasmid into 1.87 mL of Opti-MEM (Thermo-Fisher), and 40 μL of Lipofectamine 2000 (Thermo-Fisher) into 1.87 mL of Opti-MEM, and then adding the diluted DNA solution into the diluted Lipofectamine 2000 solution and incubating at room temperature for 15-20 minutes. The mixture is further diluted with 10 mL of a solution comprised of DMEM, 10% cs-FBS, and 1% P/S immediately prior to transferring to the cells. The maintenance culture media is aspirated from the cells and the final transfection mixture is added before the cells are incubated overnight at 37° C. in a humidified 5% CO2 atmosphere. This protocol can be scaled up, and the transiently transfected cells can be cryopreserved in an assay-ready format. For compound testing, 100 nL of the compounds (serial dilutions in DMSO) are dispensed with an Echo acoustic dispenser (Labcyte) into the wells of a Corning/Costar clear bottom 384-well white plate. The transfected cells are harvested, counted, and diluted such that 10-25,000 cells in 25 μL are plated into each well of the 384-well compound assay plate. The compound-treated cells are incubated overnight at 37° C. in a humidified 5% CO2 atmosphere. The next morning 25 μL of Steady-Glo (Promega) are added to each well of the plate, the mixture is incubated for 15 min. with shaking, and luminescence is measured on an Envision (Perkin Elmer) plate reader. Background counts from cells treated with DMSO alone are subtracted from all raw counts, and the corrected values are converted to a percentage of the control response attained with 8 μM GW-4064.

EC50 [nM]	Structure (SMILES)
261	CC(F)(F)c1nc(C23CCC(CN(C(=O)C4CC4(F)F)c4cccc(Br)c4)(CC2)CC3)no1 (racemic) [Example 31, N-(3-bromophenyl)-N-((4-(5-(1,1-difluoroethyl)-1,2,4-oxadiazol-3-yl)bicyclo[2.2.2]octan-1-yl)methyl)-2,2-difluorocyclopropane-1-carboxamide]
11	CC(F)(F)c1nc(C23CCC(CN(C(=O)C45CC(F)(C4)C5)c4cccc(Cl)c4)(CC2)CC3)no1 [Example 1, N-(3-chlorophenyl)-N-((4-(5-(1,1-difluoroethyl)-1,2,4-oxadiazol-3-yl)bicyclo[2.2.2]octan-1-yl)methyl)-3-fluorobicyclo[1.1.1]pentane-1-carboxamide]
64	CC(F)(F)c1nc(C23CCC(CN(c4cccc(Cl)c4)C(=O)[C@H]4C[C@](O)(C(F)(F)F)C4)(CC2)CC3)no1 [Example 2, N-(3-chlorophenyl)-N-((4-(5-(1,1-difluoroethyl)-1,2,4-oxadiazol-3-yl)bicyclo[2.2.2]octan-1-yl)methyl)-3-hydroxy-3-(trifluoromethyl)cyclobutane-1-carboxamide]
133	CC(F)(F)c1nc(C23CCC(CN(C(=O)C4CCC(F)(F)CC4)c4cccc(Cl)c4)(CC2)CC3)no1 [Example 3, N-(3-chlorophenyl)-N-((4-(5-(1,1-difluoroethyl)-1,2,4-oxadiazol-3-yl)bicyclo[2.2.2]octan-1-yl)methyl)-4,4-difluorocyclohexane-1-carboxamide]
12	CC(F)(F)c1nc(C23CCC(CN(C(=O)C45CC(F)(C4)C5)c4cccc(C#N)c4)(CC2)CC3)no1 [Example 4, N-(3-cyanophenyl)-N-((4-(5-(1,1-difluoroethyl)-1,2,4-oxadiazol-3-yl)bicyclo[2.2.2]octan-1-yl)methyl)-3-fluorobicyclo[1.1.1]pentane-1-carboxamide]
164	CC(F)(F)c1nc(C23CCC(CN(C(=O)C4CC(O)(C(F)(F)F)C4)c4cccc(C#N)c4)(CC2)CC3)no1 (centres unmarked) [Example 5, N-(3-cyanophenyl)-N-((4-(5-(1,1-difluoroethyl)-1,2,4-oxadiazol-3-yl)bicyclo[2.2.2]octan-1-yl)methyl)-3-hydroxy-3-(trifluoromethyl)cyclobutane-1-carboxamide]
106	CC(F)(F)c1nc(C23CCC(CN(C(=O)C4CCC(F)(F)CC4)c4cccc(C#N)c4)(CC2)CC3)no1 [Example 6, N-(3-cyanophenyl)-N-((4-(5-(1,1-difluoroethyl)-1,2,4-oxadiazol-3-yl)bicyclo[2.2.2]octan-1-yl)methyl)-4,4-difluorocyclohexane-1-carboxamide]
30	CC(F)(F)c1nc(C23CCC(CN(C(=O)C45CC(F)(C4)C5)c4cccc(F)c4)(CC2)CC3)no1 [Example 7, N-((4-(5-(1,1-difluoroethyl)-1,2,4-oxadiazol-3-yl)bicyclo[2.2.2]octan-1-yl)methyl)-3-fluoro-N-(3-fluorophenyl)bicyclo[1.1.1]pentane-1-carboxamide]
462	CC(F)(F)c1nc(C23CCC(CN(c4cccc(F)c4)C(=O)[C@H]4C[C@](O)(C(F)(F)F)C4)(CC2)CC3)no1 [Example 8, N-((4-(5-(1,1-difluoroethyl)-1,2,4-oxadiazol-3-yl)bicyclo[2.2.2]octan-1-yl)methyl)-N-(3-fluorophenyl)-3-hydroxy-3-(trifluoromethyl)cyclobutane-1-carboxamide]
451	CC(F)(F)c1nc(C23CCC(CN(C(=O)C4CCC(F)(F)CC4)c4cccc(F)c4)(CC2)CC3)no1 [Example 9, N-((4-(5-(1,1-difluoroethyl)-1,2,4-oxadiazol-3-yl)bicyclo[2.2.2]octan-1-yl)methyl)-4,4-difluoro-N-(3-fluorophenyl)cyclohexane-1-carboxamide]
124	CC(F)(F)c1nc(C23CCC(CN(C(=O)C45CC(F)(C4)C5)c4ccc(F)c(F)c4)(CC2)CC3)no1 [Example 10, N-((4-(5-(1,1-difluoroethyl)-1,2,4-oxadiazol-3-yl)bicyclo[2.2.2]octan-1-yl)methyl)-N-(3,4-difluorophenyl)-3-fluorobicyclo[1.1.1]pentane-1-carboxamide]
881	CC(F)(F)c1nc(C23CCC(CN(C(=O)C4CCC(F)(F)CC4)c4ccc(F)c(F)c4)(CC2)CC3)no1 [Example 11, N-((4-(5-(1,1-difluoroethyl)-1,2,4-oxadiazol-3-yl)bicyclo[2.2.2]octan-1-yl)methyl)-N-(3,4-difluorophenyl)-4,4-difluorocyclohexane-1-carboxamide]
73	CC(F)(F)c1nc(C23CCC(CN(C(=O)C45CC(F)(C4)C5)c4cccc(OC(F)F)c4)(CC2)CC3)no1 [Example 12, N-((4-(5-(1,1-difluoroethyl)-1,2,4-oxadiazol-3-yl)bicyclo[2.2.2]octan-1-yl)methyl)-N-(3-(difluoromethoxy)phenyl)-3-fluorobicyclo[1.1.1]pentane-1-carboxamide]
302	CC(F)(F)c1nc(C23CCC(CN(c4cccc(OC(F)F)c4)C(=O)[C@H]4C[C@](O)(C(F)(F)F)C4)(CC2)CC3)no1 [Example 13, N-((4-(5-(1,1-difluoroethyl)-1,2,4-oxadiazol-3-yl)bicyclo[2.2.2]octan-1-yl)methyl)-N-(3-(difluoromethoxy)phenyl)-3-hydroxy-3-(trifluoromethyl)cyclobutane-1-carboxamide]
29	CC(F)(F)c1nc(C23CCC(CN(C(=O)C45CC(F)(C4)C5)c4cccc(C(F)(F)F)c4)(CC2)CC3)no1 [Example 14, N-((4-(5-(1,1-difluoroethyl)-1,2,4-oxadiazol-3-yl)bicyclo[2.2.2]octan-1-yl)methyl)-3-fluoro-N-(3-(trifluoromethyl)phenyl)bicyclo[1.1.1]-pentane-1-carboxamide]
176	CC(F)(F)c1nc(C23CCC(CN(c4cccc(C(F)(F)F)c4)C(=O)[C@H]4C[C@](O)(C(F)(F)F)C4)(CC2)CC3)no1 [Example 15, N-((4-(5-(1,1-difluoroethyl)-1,2,4-oxadiazol-3-yl)bicyclo[2.2.2]octan-1-yl)methyl)-3-hydroxy-3-(trifluoromethyl)-N-(3-(trifluoromethyl)phenyl)cyclobutane-1-carboxamide]
315	CC(F)(F)c1nc(C23CCC(CN(C(=O)C4CCC(F)(F)CC4)c4cccc(C(F)(F)F)c4)(CC2)CC3)no1 [Example 16, N-((4-(5-(1,1-difluoroethyl)-1,2,4-oxadiazol-3-yl)bicyclo[2.2.2]octan-1-yl)methyl)-4,4-difluoro-N-(3-(trifluoromethyl)phenyl)cyclohexane-1-carboxamide]
149	COc1cc(N(CC23CCC(c4noc(C(C)(F)F)n4)(CC2)CC3)C(=O)C23CC(F)(C2)C3)ccn1 [Example 17, N-((4-(5-(1,1-difluoroethyl)-1,2,4-oxadiazol-3-yl)bicyclo[2.2.2]octan-1-yl)methyl)-3-fluoro-N-(2-methoxypyridin-4-yl)bicyclo[1.1.1]pentane-1-carboxamide]
1560	CC(F)(F)c1nc(C23CCC(CN(C(=O)C45CC(F)(C4)C5)c4cccc(S(=O)(=O)NC5CC5)c4)(CC2)CC3)no1 [Example 18, N-(3-(N-cyclopropylsulfamoyl)phenyl)-N-((4-(5-(1,1-difluoroethyl)-1,2,4-oxadiazol-3-yl)bicyclo[2.2.2]octan-1-yl)methyl)-3-fluorobicyclo[1.1.1]pentane-1-carboxamide]
4000	CC(F)(F)c1nc(C23CCC(CN(c4cccc(S(=O)(=O)NC5CC5)c4)C(=O)[C@H]4C[C@](O)(C(F)(F)F)C4)(CC2)CC3)no1 [Example 19, (1S,3S)-N-(3-(N-cyclopropylsulfamoyl)phenyl)-N-((4-(5-(1,1-difluoroethyl)-1,2,4-oxadiazol-3-yl)bicyclo[2.2.2]octan-1-yl)methyl)-3-hydroxy-3-(trifluoromethyl)cyclobutane-1-carboxamide]
